Non-standard residues stand in square brackets, D forms with d. Residues, ends and D or L forms follow the SMILES beside them. pGlu = O=C1CC[C@@H](C(=O)O)N1
Assays:
[1] = target: thalidomide binding domain (TBD) of cereblon (Homo sapiens, UniProt Q96SW2); assay: Cereblon binding (DSF, FP/FI); conditions: for inhibition at 200 µM: read-out: Cereblon Binding (≥50% inhibition at 200 μM)
Procedure: Several libraries are available for screening inhibitors. Virtual analysis was formulated and then theoretical design of chemical test kit and virtual screen of test kit were carried out. Physical binding studies were also completed for the initial compounds using DSF and FP assays after they are fully tested. TEST KITs that represent the compounds identified from each of the available chemical libraries based on virtual chemical structures were also made.

[2] = Viability relative to DMSO; type: cell-based; parameters: concentration or dose not given beside the values
IL-2 = IL-2 relative to DMSO; type: cell-based
THP-1 = assay: Viability of sensitive cell line relative to DMSO; type: cell-based
K562 = assay: Viability of sensitive cell line relative to DMSO; type: cell-based
U-937 = assay: Viability of sensitive cell line relative to DMSO; type: cell-based
[3] = Viability of sensitive cell line relative to DMSO; type: cell-based; parameters: concentration or dose not given beside the values; conditions: human, lymphocytes
HL-60 = assay: Viability of sensitive cell line relative to DMSO; type: cell-based
MM1.S = assay: Viability of sensitive cell line relative to DMSO; type: cell-based, human
Procedure: (§1) For proliferation studies, 1-2×10^4 cells per well were seeded in a 96-well plate and were treated with using cell-counting-8 kit (CCK8) (Dojindo, Rockville, MD) according to manufacturer's protocol.

U266 = assay: Viability of sensitive cell line relative to DMSO; type: cell-based, human
Procedure: as §1

mouse T cells [4] = assay: Flow cytometry of activated T cells (CD98, viability, division); type: cell-based
c-Myc mRNA = assay: qRT-PCR of c-Myc in T cells; type: cell-based; conditions: primary mouse T cells, 72 h
Procedure: qRT-PCR: Isolated T cells from Crbn^+/+ and Crbn^−/− mice were lysed, homogenized (Qiashredder, Qiagen), and total RNA extracted (RNeasy, Qiagen) according to manufacturer protocol. Complementary DNA was generated from isolated RNA (iScript cDNA synthesis Kit, Bio-Rad). RNA expression was analyzed by quantitative real time-polymerase chain reaction (qRT-PCR) using Taqman Universal PCR Master Mix for Taqman probes (Thermo Fischer Scientific) against (cDNA) c-Myc (Mm00487804_m1) and (cDNA) β2M (Mm00437762_m1). Samples were run on an Applied Biosystems 7900 HT and Sequence Detection Systems software.

[5] = tested on: BRD4 protein and c-Myc expression; assay: Western blot of BRD4 and c-Myc; type: cell-based, human and mouse
human TBD wild type = target: T1, human TBD wild type (Homo sapiens, UniProt Q96SW2); assay: Intrinsic tryptophan fluorescence assay (IF); type: binding
T1 construct: The gene coding for the human TBD (aa 317-425) was synthesized; GST (PreScission site, pGEX-6P-1) (N, cleaved yes); made in house; host or cells: E. coli Rosetta 2(DE3)pLysS
T1 sequence (Q96SW2 317-425): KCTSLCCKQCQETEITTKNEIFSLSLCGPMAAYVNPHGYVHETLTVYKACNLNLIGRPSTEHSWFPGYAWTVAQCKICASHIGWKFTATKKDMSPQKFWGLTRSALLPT
Source text: Intrinsic tryptophan fluorescence assay: Binding of compounds to wild-type and mutant TBD was monitored by fluorescence spectroscopy, using an adapted previously published method (14). All chemicals used in this assay were purchased from Sigma-Aldrich unless otherwise stated. In this assay, changes in emission spectra are induced by interactions of these compounds with the three Trp residues (Trp380, Trp386 and Trp400) in the binding site (15, 16). […] A 0.5% final DMSO concentration was used in each well. […] All measurements were done in triplicate and corrected for inner filter effect to subtract for ligand-associated fluorescence, as described (17). […] Graph plotting and curve fitting to obtain apparent dissociation constant (KD) values were calculated by fitting the relative change in intrinsic fluorescence at 340 nm (1-F/F0) versus ligand concentration to a nonlinear regression with one-site binding hyperbola with GraphPad Prism Sofware (GraphPad Software, La Jolla, CA).

mouse T cells [6] = assay: IL-2 production by stimulated T cells; type: cell-based; conditions: 10 μM, ± anti-CD28
[7] = tested on: Human multiple myeloma cell lines U266, H929, MM1.S, and OPM2; assay: Growth suppression of multiple myeloma cells; type: cell-based; conditions: for IC50: Homo sapiens, Multiple myeloma cell, read-out: IC50 doses
Procedure: as §1

human T cells [8] = assay: IL-2 production by stimulated T cells; type: cell-based; conditions: anti-CD3 stimulated, relative to DMSO
human T cells [9] = assay: Viability and proliferation of activated T cells; type: cell-based

Sequence of thalidomide binding domain (TBD) of cereblon (Q96SW2 318-426 limits assumed): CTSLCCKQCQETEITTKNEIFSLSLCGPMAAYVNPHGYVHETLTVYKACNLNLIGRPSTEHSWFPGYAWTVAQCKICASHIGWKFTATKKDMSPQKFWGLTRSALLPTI

## O=C1CC(N2C(=O)c3ccccc3C2=O)C(=O)N1 (stereo not shown)
[1]
  Cereblon Binding (≥50% inhibition at 200 μM): No
[2]
  viability: 75.3%
IL-2
  IL-2 (%) (Relative to DMSO): 10.9%

## O=C1C[C@H](N2C(=O)c3ccccc3C2=O)C(=O)N1
[1]
  Cereblon Binding (≥50% inhibition at 200 μM): No
[2]
  viability: 85.6%
IL-2
  IL-2 (%) (Relative to DMSO): 44.4%

## Nc1ccccc1S(=O)(=O)NCCn1ccc(=O)[nH]c1=O
[1]
  Cereblon Binding (≥50% inhibition at 200 μM): No
[2]
  viability: 74.6%
IL-2
  IL-2 (%) (Relative to DMSO): 31.8%

## O=C1CCC(NCCc2ccccn2)C(=O)N1 (stereo not shown)
[1]
  inhibition at 200 µM: > 50%
THP-1
  Viability (%) (Relative to DMSO): 98.8%
K562
  Viability (%) (Relative to DMSO): 80.0%
U-937
  Viability (%) (Relative to DMSO): 58.4%
[3]
  viability: 91.1%
HL-60
  Viability (%) (Relative to DMSO): 81.8%
MM1.S
  Viability (%) (Relative to DMSO): 29.9%
U266
  Viability (%) (Relative to DMSO): 27.0%

## CN(Cc1ccccc1)C1CC(=O)NC1=O (stereo not shown)
[1]
  Cereblon Binding (≥50% inhibition at 200 μM): No
THP-1
  Viability (%) (Relative to DMSO): 32.6%
K562
  Viability (%) (Relative to DMSO): 116.7%
U-937
  Viability (%) (Relative to DMSO): 98.5%
[3]
  viability: 96.8%
HL-60
  Viability (%) (Relative to DMSO): 10.15%
MM1.S
  Viability (%) (Relative to DMSO): 1.1%
U266
  Viability (%) (Relative to DMSO): 0%

## Cn1c(=O)ccn(CCCCc2ccccc2)c1=O
[1]
  Cereblon Binding (≥50% inhibition at 200 μM): No
THP-1
  Viability (%) (Relative to DMSO): 32.8%
K562
  Viability (%) (Relative to DMSO): 17.7%
U-937
  Viability (%) (Relative to DMSO): 50.5%
[3]
  viability: 94.2%
HL-60
  Viability (%) (Relative to DMSO): 39.3%
MM1.S
  Viability (%) (Relative to DMSO): 43.0%
U266
  Viability (%) (Relative to DMSO): 32.7%

## CNc1ccccc1C(=O)NCCNC1CC(=O)NC1=O (stereo not shown)
[1]
  Cereblon Binding (≥50% inhibition at 200 μM): No
THP-1
  Viability (%) (Relative to DMSO): 41.1%
K562
  Viability (%) (Relative to DMSO): 21.1%
U-937
  Viability (%) (Relative to DMSO): 6.3%
[3]
  viability: 92.6%
HL-60
  Viability (%) (Relative to DMSO): 12.0%
MM1.S
  Viability (%) (Relative to DMSO): 53.6%
U266
  Viability (%) (Relative to DMSO): 0.1%

## COC(=O)[C@H](C)NC(=O)[C@@H]1CCC(=O)N1 ([pGlu]-Ala-OMe)
[1]
  Cereblon Binding (≥50% inhibition at 200 μM): No
[2]
  viability: 101%
IL-2
  IL-2 (%) (Relative to DMSO): 11.7%

## CC(C)C[C@H](NC(=O)[C@@H]1CCC(=O)N1)C(N)=O ([pGlu]-Leu-NH2)
[1]
  Cereblon Binding (≥50% inhibition at 200 μM): No
[2]
  viability: 110%
IL-2
  IL-2 (%) (Relative to DMSO): 24.6%

## Cc1sc2c(c1C)C(c1ccc(Cl)cc1)=N[C@@H](CC(=O)OC(C)(C)C)c1nnc(C)n1-2 [JQ1]
Mouse T cells [4]
  proliferation: compromised
  surface expression of CD98: reduction
  viability: compromised
c-Myc mRNA
  c-Myc mRNA: Suppression
[5]; activated mouse T cells, not dependent on CRBN
  BRD4 protein level: slight reduction in protein expression
Human TBD wild type
  binding affinity for CRBN-TBD: does not bind

## Nc1cccc2c1CN(C1CCC(=O)NC1=O)C2=O (stereo not shown) [Lenalidomide, lenalidomide]
Mouse T cells [6]
  lenalidomide-induced increase in IL-2: only human T cells displayed the expected lenalidomide-induced increase in IL-2
[7]
  IC50: 7 to 16 µM
Human T cells [8]
  levels of IL2 mRNA and protein: significantly increased

## Nc1cccc2c1C(=O)N(C1CCC(=O)NC1=O)C2=O (stereo not shown) [Pomalidomide, pomalidomide]
Human T cells [9]
  proliferation: increase proliferation
Human T cells [9]; 72 h
  relative viability: no effect on viability
[7]
  IC50: 0.05 to 0.61 µM

## O=C1CCC(N2C(=O)c3ccccc3C2=O)C(=O)N1 (stereo not shown) [Thalidomide, thalidomide]
[7]; doses up to 200 μM
  growth suppression: no suppressive function

## Cc1sc2c(c1C)C(c1ccc(Cl)cc1)=N[C@@H](CC(=O)NCCCCNC(=O)COc1cccc3c1C(=O)N(C1CCC(=O)NC1=O)C3=O)c1nnc(C)n1-2 (stereo partly shown) [dBET1]
Mouse T cells [4]
  surface expression of CD98: reduces the percentage of cells expressing the c-Myc target CD98
  viability: suppresses viability
[5]; human T cells, mouse T cells, MM1.S, 5TGM1
  BRD4 protein and c-Myc expression: dramatically suppressed

## Nc1cccc2c1C(=O)N(C1CCC(=O)NC1=O)C2=O (stereo not shown) [drawing 76]
[1]
  inhibition at 200 µM: > 50%
[2]
  viability: 96.3%
IL-2
  IL-2 (%) (Relative to DMSO): 208.6%

## Nc1cccc2c1CN(C1CCC(=O)NC1=O)C2=O (stereo not shown) [drawing 123]
[3]
  viability: 99.9%
